Results as given in the NIST ThermoML archive (doi:10.1021/acs.jced.5b00980).

Key:
[1] = for mass density: 101.33 kPa, Liquid, Vibrating tube method
[2] = activity coefficient (dimensionless); of the first substance listed, at infinite dilution; xn = mol fraction of the nth substance listed; conditions: 100 kPa, Liquid, Chromatography, x1 = 0

CCCC[P+](CC)(CCCC)CCCC.CCOP(=O)([O-])OCC [tributylethylphosphonium diethylphosphate]
[1]
Conditions	mass density [kg/m3]
298.15 K	996.1
303.15 K	992.58
308.15 K	989.06
313.15 K	985.55
318.15 K	982.04
323.15 K	978.53
328.15 K	975.03
333.15 K	971.53
338.15 K	968.03
343.15 K	964.53
348.15 K	961.01
353.15 K	957.5
358.15 K	954
363.15 K	950.49
368.15 K	946.98

Conditions	Glass transition temperature [°C]
[1], Glass, DSC	-71.34

CCC[N+](=O)[O-] [1-nitropropane] + CCCC[P+](CC)(CCCC)CCCC.CCOP(=O)([O-])OCC
[2]
Conditions	activity coefficient
328.15 K	0.499
338.15 K	0.507
348.15 K	0.515
358.15 K	0.523
368.15 K	0.53

CC(C)CC(C)(C)C [2,2,4-trimethylpentane] + CCCC[P+](CC)(CCCC)CCCC.CCOP(=O)([O-])OCC
[2]
Conditions	activity coefficient
328.15 K	4.38
338.15 K	4.25
348.15 K	4.15
358.15 K	4.05
368.15 K	3.97

CCCCCCCC [octane] + CCCC[P+](CC)(CCCC)CCCC.CCOP(=O)([O-])OCC
[2]
Conditions	activity coefficient
328.15 K	4.87
338.15 K	4.74
348.15 K	4.6
358.15 K	4.47
368.15 K	4.37

C1CCCCC1 [cyclohexane] + CCCC[P+](CC)(CCCC)CCCC.CCOP(=O)([O-])OCC
[2]
Conditions	activity coefficient
328.15 K	2.17
338.15 K	2.13
348.15 K	2.09
358.15 K	2.05
368.15 K	2.01

CCCCCCC [heptane] + CCCC[P+](CC)(CCCC)CCCC.CCOP(=O)([O-])OCC
[2]
Conditions	activity coefficient
328.15 K	4.08
338.15 K	3.97
348.15 K	3.87
358.15 K	3.78
368.15 K	3.7

C#CCCC [1-pentyne] + CCCC[P+](CC)(CCCC)CCCC.CCOP(=O)([O-])OCC
[2]
Conditions	activity coefficient
328.15 K	0.725
338.15 K	0.762
348.15 K	0.797
358.15 K	0.833
368.15 K	0.866

C1COCCO1 [1,4-dioxane] + CCCC[P+](CC)(CCCC)CCCC.CCOP(=O)([O-])OCC
[2]
Conditions	activity coefficient
328.15 K	1.08
338.15 K	1.06
348.15 K	1.05
358.15 K	1.03
368.15 K	1.02

CCOC(C)(C)C [2-ethoxy-2-methylpropane] + CCCC[P+](CC)(CCCC)CCCC.CCOP(=O)([O-])OCC
[2]
Conditions	activity coefficient
328.15 K	2.66
338.15 K	2.6
348.15 K	2.56
358.15 K	2.51
368.15 K	2.47
